Data published in ChEMBL document CHEMBL4138230, “New estrogen receptor antagonists. 3,20-Dihydroxy-19-norpregna-1,3,5(10)-trienes: Synthesis, molecular modeling, and biological evaluation” (Eur J Med Chem, 2018).
Activity calls are given as the source filed them. The calls are words filed in the database; no cut-off is given here.

Key:
[1] = biological target: T1, Estrogen receptor (Homo sapiens) (UniProt P03372); assay: Antagonist activity at ERalpha in human MCF7 cells at 5 uM after 24 hrs by luciferase reporter gene assay relative to control; format: cell-based
T1 sequence (whole entry): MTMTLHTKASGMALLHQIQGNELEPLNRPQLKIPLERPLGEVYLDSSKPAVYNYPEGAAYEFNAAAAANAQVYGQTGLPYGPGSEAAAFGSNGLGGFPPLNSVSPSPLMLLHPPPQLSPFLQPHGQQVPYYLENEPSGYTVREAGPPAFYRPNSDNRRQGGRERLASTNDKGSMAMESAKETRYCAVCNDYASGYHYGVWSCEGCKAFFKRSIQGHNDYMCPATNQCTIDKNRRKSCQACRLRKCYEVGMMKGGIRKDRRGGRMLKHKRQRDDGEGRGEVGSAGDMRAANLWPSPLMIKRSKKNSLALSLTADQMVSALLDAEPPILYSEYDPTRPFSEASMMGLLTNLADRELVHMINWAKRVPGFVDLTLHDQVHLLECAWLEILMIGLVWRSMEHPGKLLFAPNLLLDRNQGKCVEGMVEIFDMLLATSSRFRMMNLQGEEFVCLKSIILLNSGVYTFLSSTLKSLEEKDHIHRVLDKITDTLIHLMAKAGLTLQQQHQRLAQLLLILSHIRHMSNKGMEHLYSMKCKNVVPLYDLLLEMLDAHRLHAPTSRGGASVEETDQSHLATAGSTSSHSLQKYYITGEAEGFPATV

[2] = system: MCF7; assay: cells; details: Homo sapiens, MCF7, 72 h
Description: Growth inhibition of human MCF7 cells after 72 hrs by MTT assay

[3] = system: MCF-10A; assay: Growth inhibition of human MCF10A cells after 72 hrs by MTT assay; format: cell-based
[4] = Growth inhibition of human MCF10A cells at <25 uM after 72 hrs by MTT assay relative to control; format: cell-based, MCF-10A; details: read-out: GI
[5] = system: MCF7; assay: Growth inhibition of human MCF7 cells at <25 uM after 72 hrs by MTT assay relative to control; format: functional

Row | Compound | inhibition [1] | IC50 [2] [µM] | IC50 [3] [µM] | inhibition at 72 h [4] [%] | growth inhibition (GI) [5] [%]
1 | C[C@H](O)[C@@]12CCCC[C@@H]1C[C@H]1[C@@H]3CCc4cc(O)ccc4[C@H]3CC[C@@]12C | Active | 4.6 | 23 | – | –
2 | CC(O)[C@@]12C[C@@H]1C[C@H]1[C@@H]3CCc4cc(O)ccc4[C@H]3CC[C@@]12C (mixture of isomers) | Active | 0.21 | 3.1 | – | –
3 | CC(O)C1=CC[C@H]2[C@@H]3CCc4cc(O)ccc4[C@H]3CC[C@]12C (mixture of isomers) | inactive | 4.6 | 19.1 | – | –
4 | C[C@@H](O)[C@@]12CCCC[C@@H]1C[C@H]1[C@@H]3CCc4cc(O)ccc4[C@H]3CC[C@@]12C | 70% | 6.8 | – | < 50 | –
5 | COc1ccc2c(c1)CC[C@@H]1[C@@H]2CC[C@@]2(C)[C@H]1C[C@H]1CCCC[C@]12C(C)=O | inactive | – | – | < 50 | <50
6 | C[C@@H](O)[C@H]1CC[C@H]2[C@@H]3CCc4cc(O)ccc4[C@H]3CC[C@]12C | Active | 0.15 | 5.9 | – | –
7 | CC/C(=C(\c1ccccc1)c1ccc(OCCN(C)C)cc1)c1ccccc1 [TAMOXIFEN] | – | 5.3 | – | < 50 | –
8 | COc1ccc2c(c1)CC[C@@H]1[C@@H]2CC[C@@]2(C)[C@H]1C[C@H]1CCCC[C@]12C(C)O (mixture of isomers) | inactive | – | – | – | –
9 | CC(=O)[C@H]1CC[C@H]2[C@@H]3CCc4cc(O)ccc4[C@H]3CC[C@]12C | inactive | – | – | < 50 | <50
10 | CC(=O)[C@@]12CCCC[C@@H]1C[C@H]1[C@@H]3CCc4cc(O)ccc4[C@H]3CC[C@@]12C | Active | 15.8 | – | < 50 | –
